Earlier results, collected in paper PMC9329312, “Decoding kinase-adverse event associations for small molecule kinase inhibitors” (Nature Communications, 2022).

Conditions: ref FAERS

CCOc1cc2ncc(C#N)c(Nc3ccc(OCc4ccccn4)c(Cl)c3)c2cc1NC(=O)/C=C/CN(C)C [neratinib]
0.5%: Pancreatitis, % of Cases
7.8%: Product dose omission issue, % of Cases
0.8%: Onychoclasis, % of Cases
1.4%: Nasopharyngitis, % of Cases | Pain, % of Cases
0.9%: Myalgia, % of Cases | Pain in extremity, % of Cases | Product administration error, % of Cases
1.6%: Metastases to central nervous system, % of Cases
0.225%: Joint swelling, % of Cases | Liver injury, % of Cases | Mastectomy, % of Cases | Nail discolouration, % of Cases | Oral mucosal blistering, % of Cases | Pancreatitis acute, % of Cases | Platelet count decreased, % of Cases | Pleural effusion, % of Cases | Productive cough, % of Cases
1.3%: Prescribed underdose, % of Cases
0.75%: Peripheral swelling, % of Cases
1.5%: Malaise, % of Cases
0.075%: Intracranial artery dissection, % of Cases | Ischaemic stroke, % of Cases | Joint injury, % of Cases | Kidney infection, % of Cases | Klebsiella infection, % of Cases | Large intestinal haemorrhage, % of Cases | Large intestinal obstruction, % of Cases | Localised infection, % of Cases | Lower limb fracture, % of Cases | Lower respiratory tract infection, % of Cases | Lung cancer metastatic, % of Cases | Lymph node haemorrhage, % of Cases | Lymphocyte count decreased, % of Cases | Magnetic resonance imaging abnormal, % of Cases | Magnetic resonance imaging head abnormal, % of Cases | Malignant ascites, % of Cases | Malignant neoplasm of unknown primary site, % of Cases | Malignant pleural effusion, % of Cases | Medical procedure, % of Cases | Menopausal symptoms, % of Cases | Menstruation delayed, % of Cases | Mental impairment, % of Cases | Mesenteric artery stenosis, % of Cases | Metastases to abdominal cavity, % of Cases | Metastases to lymph nodes, % of Cases | Metastases to meninges, % of Cases | Metastases to peritoneum, % of Cases | Metastases to spine, % of Cases | Microcytic anaemia, % of Cases | Micturition urgency, % of Cases | Middle ear effusion, % of Cases | Monocyte count increased, % of Cases | Monoplegia, % of Cases | Mood swings, % of Cases | Mouth haemorrhage, % of Cases | Mouth swelling, % of Cases | Movement disorder, % of Cases | Myelosuppression, % of Cases | Myocardial infarction, % of Cases | Myopia, % of Cases | Nail growth abnormal, % of Cases | Nasal ulcer, % of Cases | Neoplasm malignant, % of Cases | Nervousness, % of Cases | Neuralgia, % of Cases | Neutrophil count increased, % of Cases | Nightmare, % of Cases | Oedema peripheral, % of Cases | Oesophageal pain, % of Cases | Onychalgia, % of Cases | Onychomycosis, % of Cases | Oral herpes, % of Cases | Orthostatic hypotension, % of Cases | Osteonecrosis of jaw, % of Cases | Oxygen saturation decreased, % of Cases | Oxygen saturation increased, % of Cases | PIK3CA-activated mutation, % of Cases | Pancreatic carcinoma, % of Cases | Pancreatic mass, % of Cases | Panic attack, % of Cases | Papilloedema, % of Cases | Papule, % of Cases | Paraesthesia oral, % of Cases | Paranasal sinus hypersecretion, % of Cases | Paranasal sinus hyposecretion, % of Cases | Pericardial effusion, % of Cases | Periorbital swelling, % of Cases | Pharyngitis, % of Cases | Photopsia, % of Cases | Photosensitivity reaction, % of Cases | Physical deconditioning, % of Cases | Physical disability, % of Cases | Platelet count increased, % of Cases | Pneumonitis, % of Cases | Poor quality sleep, % of Cases | Post procedural bile leak, % of Cases | Post procedural infection, % of Cases | Post procedural swelling, % of Cases | Prescribed overdose, % of Cases | Presyncope, % of Cases | Procedural pain, % of Cases | Proctalgia, % of Cases | Product administered to patient of inappropriate age, % of Cases | Product dose omission in error, % of Cases | Product identification number issue, % of Cases | Product name confusion, % of Cases | Product packaging quantity issue, % of Cases | Product prescribing error, % of Cases | Prosthesis implantation, % of Cases | Pulmonary embolism, % of Cases | Pulmonary hypertension, % of Cases | Pulmonary pain, % of Cases
1.1%: Neuropathy peripheral, % of Cases | Oropharyngeal pain, % of Cases | Pneumonia, % of Cases
0.15%: Intra-abdominal fluid collection, % of Cases | Irritability, % of Cases | Joint stiffness, % of Cases | Labelled drug-drug interaction medication error, % of Cases | Laboratory test abnormal, % of Cases | Ligament sprain, % of Cases | Liver disorder, % of Cases | Lung disorder, % of Cases | Lymphoedema, % of Cases | Malnutrition, % of Cases | Mass, % of Cases | Metastatic neoplasm, % of Cases | Mouth ulceration, % of Cases | Muscle twitching, % of Cases | Musculoskeletal chest pain, % of Cases | Neck pain, % of Cases | Negative thoughts, % of Cases | Nephrolithiasis, % of Cases | Nervous system disorder, % of Cases | Night sweats, % of Cases | Ocular hyperaemia, % of Cases | Onycholysis, % of Cases | Osteoarthritis, % of Cases | Palpitations, % of Cases | Paronychia, % of Cases | Postoperative wound infection, % of Cases | Product physical issue, % of Cases | Product use in unapproved indication, % of Cases | Product use issue, % of Cases | Pulmonary oedema, % of Cases
29.7%: Nausea, % of Cases
4.2%: Muscle spasms, % of Cases
0.3%: Lip swelling, % of Cases | Loss of consciousness, % of Cases | Metastases to liver, % of Cases | Metastases to lung, % of Cases | Musculoskeletal stiffness, % of Cases | Nasal dryness, % of Cases | Oral discomfort, % of Cases | Oral pain, % of Cases | Palmar-plantar erythrodysaesthesia syndrome, % of Cases
0.375%: Lung neoplasm malignant, % of Cases | Metastases to bone, % of Cases | Migraine, % of Cases | Muscular weakness, % of Cases | Nail disorder, % of Cases | Neutropenia, % of Cases | Pollakiuria, % of Cases
11.6%: Off label use, % of Cases
1.2%: Pruritus, % of Cases
0.45%: Lethargy, % of Cases | Liver function test increased, % of Cases | Malignant neoplasm progression, % of Cases | Memory impairment, % of Cases | Nasal congestion, % of Cases | Neoplasm progression, % of Cases | Paraesthesia, % of Cases
